The source of these data is article PMC6792352, “Limited Chemical Structural Diversity Found to Modulate Thyroid Hormone Receptor in the Tox21 Chemical Library” (Environmental Health Perspectives, 2019).

Counter-ions that a name gives are not always drawn.

The first data set can be described thus: in vitro. The following applies: rat, gh3-tre-luc cells, AC50 (uM) modified / 1000.
Turning to `CN(C)CCOC1=Cc2ccccc2Sc2ccc(Cl)cc21` [Zotepine], the CC50 at 24 h was 6.89 µM.
Take `CCC(C)(NC(=O)c1cc(Cl)c(C)c(Cl)c1)C(=O)CCl` (stereo not shown) [Zoxamide]: the CC50 at 24 h is 15 µM.
For `OCCN1CCN(CC/C=C2/c3ccccc3Sc3ccc(Cl)cc32)CC1` [Zuclopenthixol dihydrochloride], half-maximal cytotoxicity (CC50 at 24 h) was put at 8.55 µM.
Still for that read-out and setting: in the case of `N#CCc1cccc(C(F)(F)F)c1` [[3-(Trifluoromethyl)phenyl]acetonitrile] it was over 90 µM; in that of `CC1=CC[C@H](CC=O)C1(C)C` [[(1R)-2,2,3-Trimethylcyclopent-3-en-1-yl]acetaldehyde], over 90 µM.
Same read-out and setting: in the case of `CC1(C)[C@H]2CC[C@]1(C)[C@H](O)C2` [[(1S)-endo]-(-)-Borneol] it was over 90 µM; in that of `ClC1C(Cl)C(Cl)C(Cl)C(Cl)C1Cl` (stereo not drawn) [alpha-1,2,3,4,5,6-Hexachlorocyclohexane], over 90 µM; in that of `CC(Oc1cc(Cl)ccc1Cl)C(=O)O` (stereo not drawn) [alpha-(2,5-Dichlorophenoxy)propionic acid], over 90 µM.
The same measure, in the same setting: in the case of `CCCCC/C(=C\c1ccccc1)CO` [alpha-Amylcinnamyl alcohol] it was 46.6 µM.
In the case of `CC1(C)C(/C=C(\Cl)C(F)(F)F)C1C(=O)OC(C#N)c1cccc(Oc2ccccc2)c1` (stereo not drawn) [alpha-Cyhalothrin], the CC50 at 24 h is over 90 µM.
In the case of `CC1(C)[C@H](C(=O)O[C@H](C#N)c2cccc(Oc3ccccc3)c2)[C@@H]1C=C(Cl)Cl` [alpha-Cypermethrin], the CC50 at 24 h is over 90 µM.
On the same count and under the same terms, in the case of `C=C/C(C)=C/C/C=C(\C)CCC=C(C)C` [alpha-Farnesene] it was over 90 µM; in that of `CC12CCC(C1)C(C)(C)C2=O` (stereo not drawn) [alpha-Fenchone], over 50 µM; in that of `O=C(C(=O)c1ccco1)c1ccco1` [alpha-Furil], over 90 µM.
On the same count and under the same terms, then `CCCCCCC1CCOC1=O` (stereo not drawn) [alpha-Hexyl-gamma-butyrolactone], with over 90 µM; and `CC(=O)/C=C/C1C(C)=CCCC1(C)C` (stereo not drawn) [alpha-Ionone], with over 90 µM; and `CC(=O)/C=C/[C@H]1C(C)=CC[C@@H](C)C1(C)C` [alpha-Irone], with over 90 µM.
With `CC(=O)/C(C)=C/C1C(C)=CCCC1(C)C` (stereo not drawn) [alpha-Isomethylionone], the CC50 at 24 h was over 90 µM.
On the same count and under the same terms, in the case of `O=C(O)CCC(=O)C(=O)O` [alpha-Ketoglutaric acid] it was over 90 µM.
Turning to `OC[C@H]1O[C@H](O[C@@]2(CO)O[C@@H](O)[C@H](O)[C@@H]2O)[C@H](O)[C@@H](O)[C@@H]1O` [alpha-L-Lyxo-hex-5-ulofuranosyl alpha-D-glucopyranoside], the CC50 at 24 h was over 50 µM.
The same measure, in the same setting: in the case of `NC(=O)CCCCC1CCSS1` (stereo not drawn) [alpha-Lipoic acid amide] it was over 50 µM; in that of `O=C(O)CCCCC1CCSS1` (stereo not drawn) [alpha-Lipoic acid], over 90 µM.
Same read-out and setting: in the case of `CC(O)c1ccccc1` (stereo not drawn) [alpha-Methylbenzyl alcohol] it was over 90 µM; in that of `C=C(C)c1ccccc1` [alpha-Methylstyrene], over 90 µM; in that of `S=C=Nc1cccc2ccccc12` [alpha-Naphylisothiocyanate], over 90 µM.
The same measure, in the same setting: in the case of `CC1=CC=C(C(C)C)CC1` [alpha-Terpinene] it was over 90 µM; in that of `CC1=CC[C@@H](C(C)(C)O)CC1` [alpha-Terpineol], over 90 µM; in that of `CC(=O)OC(C)(C)C1CC=C(C)CC1` (stereo not drawn) [alpha-Terpinyl acetate], over 90 µM.
The compound `C[C@H]1CC[C@]2(NC1)O[C@H]1C[C@H]3[C@@H]4CC[C@H]5C[C@@H](O[C@@H]6O[C@H](CO)[C@H](O[C@@H]7O[C@H](CO)[C@@H](O)[C@H](O[C@@H]8OC[C@@H](O)[C@H](O)[C@H]8O)[C@H]7O[C@@H]7O[C@H](CO)[C@@H](O)[C@H](O)[C@H]7O)[C@H](O)[C@H]6O)CC[C@]5(C)[C@H]4CC[C@]3(C)[C@H]1[C@@H]2C` [alpha-Tomatine] returned a cytotoxic concentration (CC50) at 24 h of 2.38 µM.
The same measure, in the same setting: in the case of `Cc1c(C)c2c(c(C)c1O)CC[C@@](C)(CCC[C@H](C)CCC[C@H](C)CCCC(C)C)O2` [alpha-Vitamin E] it was over 50 µM.
The same measure, in the same setting: in the case of `CC1CC(=O)O1` (stereo not drawn) [beta-Butyrolactone] it was over 100 µM; in that of `CC1=C(/C=C/C(C)=C/C=C/C(C)=C/C=C/C=C(C)/C=C/C=C(C)/C=C/C2=C(C)CCCC2(C)C)C(C)(C)CCC1` [beta-Carotene], over 50 µM.
Still for that read-out and setting: then `C=C1CC/C=C(\C)CC[C@@H]2[C@@H]1CC2(C)C` [beta-Caryophyllene], with over 90 µM; and `CC1=C(C=O)C(C)(C)CCC1` [beta-Cyclocitral], with over 90 µM; and `OC[C@H]1O[C@@H]2O[C@H]3[C@H](O)[C@@H](O)[C@@H](O[C@H]4[C@H](O)[C@@H](O)[C@@H](O[C@H]5[C@H](O)[C@@H](O)[C@@H](O[C@H]6[C@H](O)[C@@H](O)[C@@H](O[C@H]7[C@H](O)[C@@H](O)[C@@H](O[C@H]8[C@H](O)[C@@H](O)[C@@H](O[C@H]1[C@H](O)[C@H]2O)O[C@@H]8CO)O[C@@H]7CO)O[C@@H]6CO)O[C@@H]5CO)O[C@@H]4CO)O[C@@H]3CO` [beta-Cyclodextrin], with over 90 µM.
As for `CCC(=O)O[C@H]1CC[C@H]2[C@@H]3CCc4cc(O)ccc4[C@H]3CC[C@]12C` [beta-Estradiol 17-propionate], it took 26.8 µM to reach half-maximal cytotoxicity (CC50 at 24 h).
On the same count and under the same terms, then `Cl[C@H]1[C@H](Cl)[C@@H](Cl)[C@H](Cl)[C@@H](Cl)[C@@H]1Cl` [beta-Hexachlorocyclohexane], with over 90 µM; and `CC(=O)/C=C/C1=C(C)CCCC1(C)C` [beta-Ionone], with over 90 µM; and `C=C1CC[C@H]2C[C@@H]1C2(C)C` [beta-Pinene], with over 90 µM.
Still for that read-out and setting: in the case of `CC[C@H](CC[C@@H](C)[C@H]1CC[C@H]2[C@@H]3CC=C4C[C@@H](O)CC[C@]4(C)[C@H]3CC[C@]12C)C(C)C` [beta-Sitosterol] it was over 50 µM.
Still for that read-out and setting: in the case of `C=C(C)C1CCC(C)(O)CC1` (stereo not drawn) [beta-Terpineol] it was over 90 µM; in that of `CC(CCl)OC(C)CCl` (stereo not shown) [bis(2-Chloro-1-methylethyl) ether], over 90 µM.
In the case of `ClCOCCl` [bis(Chloromethyl) ether], the half-maximal cytotoxic concentration (CC50) at 24 h is over 90 µM.
Same read-out and setting: then `CC(=O)OC/C=C(/C)CCC=C(C)C` [cis-3,7-Dimethyl-2,6-octadien-1-yl acetate], with over 90 µM.
For `OCCN1CCN(CC/C=C2/c3ccccc3Sc3ccc(C(F)(F)F)cc32)CC1` [cis-Flupentixol], the CC50 at 24 h was 12.1 µM.
On the same count and under the same terms, in the case of `C[C@@H]1CCC[C@H](C)N1` [cis-Nanophine hydrochloride] it was over 20 µM; in that of `C=CC(C)(O)CC/C=C(/C)CCC=C(C)C` (stereo not drawn) [cis-Nerolidol], over 90 µM.
For `C(=C/c1ccccc1)/c1ccccc1` [cis-Stilbene], the cytotoxic concentration (CC50) at 24 h is over 90 µM.
Compound `C=C(C)[C@H]1CC=C(C)C(=O)C1` [d-Carvone] showed a CC50 at 24 h of over 90 µM.
Still for that read-out and setting: in the case of `N[C@H](Cc1c[nH]c2ccccc12)C(=O)O` [d-Tryptophan] it was over 90 µM.
Still for that read-out and setting: in the case of `CCCC1CCCC(=O)O1` (stereo not shown) [delta-Octanolactone] it was over 90 µM.
In turn, `CN1CCc2cc(Cl)c(O)cc2[C@H]2c3ccccc3CC[C@@H]21` [ecopipam] had a CC50 at 24 h of 17.4 µM.
As for `CCCCC1CCCCC(=O)O1` (stereo not shown) [epsilon-Decalactone], the half-maximal cytotoxic concentration (CC50) at 24 h is over 90 µM.
Same read-out and setting: then `OC[C@H]1O[C@@H]2O[C@H]3[C@H](O)[C@@H](O)[C@@H](O[C@H]4[C@H](O)[C@@H](O)[C@@H](O[C@H]5[C@H](O)[C@@H](O)[C@@H](O[C@H]6[C@H](O)[C@@H](O)[C@@H](O[C@H]7[C@H](O)[C@@H](O)[C@@H](O[C@H]8[C@H](O)[C@@H](O)[C@@H](O[C@H]9[C@H](O)[C@@H](O)[C@@H](O[C@H]1[C@H](O)[C@H]2O)O[C@@H]9CO)O[C@@H]8CO)O[C@@H]7CO)O[C@@H]6CO)O[C@@H]5CO)O[C@@H]4CO)O[C@@H]3CO` [gamma-Cyclodextrin], with over 30 µM; and `CCCCCCC1CCC(=O)O1` (stereo not shown) [gamma-Decanolactone], with over 90 µM.
Same read-out and setting: then `CCCCCCCCC1CCC(=O)O1` (stereo not shown) [gamma-Dodecalactone], with over 90 µM.

The same data set, now with this note: rat, gh3-tre-luc cells, AC50 (uM) modified / 1000, Tox21_110001=Tox21_110445; viability, 1 nM T3 present, 24 h.
`CC1=C2[C@H]3OC(=O)[C@@H](C)[C@@H]3CC[C@@]2(C)C=CC1=O` [alpha-Santonin] had a CC50 at 24 h of over 50 µM.

Still in this data set, the particulars now being: rat, gh3-tre-luc cells, AC50 (uM) modified / 1000, Tox21_110001=Tox21_111026; viability, 1 nM T3 present, 24 h.
`O=C1CCO1` [beta-Propiolactone]: the 50% cytotoxic concentration (CC50) at 24 h is over 50 µM.

Staying with this data set, now noted: rat, gh3-tre-luc cells, AC50 (uM) modified / 1000, Tox21_110001=Tox21_111132; viability, 1 nM T3 present, 24 h.
With `C[C@H]1CC[C@@H]2[C@@H](C)[C@H]3[C@H](C[C@H]4[C@@H]5CC=C6C[C@@H](O[C@@H]7O[C@H](CO)[C@H](O)[C@H](O[C@@H]8O[C@H](CO)[C@@H](O)[C@H](O)[C@H]8O)[C@H]7O[C@@H]7O[C@@H](C)[C@H](O)[C@@H](O)[C@H]7O)CC[C@]6(C)[C@H]5CC[C@]34C)N2C1` [alpha-Solanine], the half-maximal cytotoxic concentration (CC50) at 24 h was 17.5 µM.

Still in this data set, the particulars now being: rat, gh3-tre-luc cells, AC50 (uM) modified / 1000, Tox21_110001=Tox21_112370; viability, 1 nM T3 present, 24 h.
Regarding `OC[C@@H](O)[C@H]1O[C@@H]2O[C@@H](C(Cl)(Cl)Cl)O[C@@H]2[C@H]1O` [beta-Chloralose], the half-maximal cytotoxic concentration (CC50) at 24 h was over 50 µM.

The data set is the same for the next values; noted with them: rat, gh3-tre-luc cells, AC50 (uM) modified / 1000, Tox21_110001=Tox21_200104; viability, 1 nM T3 present, 24 h.
As for `C[C@H]1CC[C@@H]2[C@@H](C)[C@H]3[C@H](C[C@H]4[C@@H]5CC=C6C[C@@H](O[C@@H]7O[C@H](CO)[C@H](O)[C@H](O[C@@H]8O[C@H](CO)[C@@H](O)[C@H](O)[C@H]8O)[C@H]7O[C@@H]7O[C@@H](C)[C@H](O)[C@@H](O)[C@H]7O)CC[C@]6(C)[C@H]5CC[C@]34C)N2C1` [alpha-Solanine], the CC50 at 24 h came to 16.1 µM.

Still in this data set, the particulars now being: rat, gh3-tre-luc cells, AC50 (uM) modified / 1000, Tox21_110001=Tox21_200804; viability, 1 nM T3 present, 24 h.
The compound `N#CC(O)c1ccccc1` (stereo not drawn) [alpha-Hydroxybenzeneacetonitrile] yielded a half-maximal cytotoxic concentration (CC50) at 24 h of over 90 µM.

The data set is the same for the next values; noted with them: rat, gh3-tre-luc cells, AC50 (uM) modified / 1000, Tox21_110001=Tox21_200868; viability, 1 nM T3 present, 24 h.
Turning to `CC(C)[C@]12CC(=O)[C@H](C)[C@H]1C2` [alpha-Thujone], the half-maximal cytotoxic concentration (CC50) at 24 h is over 90 µM.

Still in this data set, the particulars now being: rat, gh3-tre-luc cells, AC50 (uM) modified / 1000, Tox21_110001=Tox21_300875; viability, 1 nM T3 present, 24 h.
As to `CCC1CCC(=O)O1` (stereo not shown) [gamma-Caprolactone], the CC50 at 24 h was over 100 µM.
